From US20210386754A1, “COMPOSITIONS AND METHODS FOR TREATING ATHEROSCLEROTIC VASCULAR DISEASE” (AUGUSTA UNIVERSITY RESEARCH INSTITUTE, INC., priority 2020, published 2021)
“Also recorded” adds a separate entry of the source.

Assays:
[1] = system: macrophages (SR-mediated ox-LDL uptake); assay: SR-mediated ox-LDL uptake; assay type: cell-based; conditions: EIPA 25 μM, 1 hr; ox-LDL 50 μg/ml
Protocol: Foam cell formation: THP-1 macrophages or bone marrow-derived macrophages were treated with vehicle, known macropinocytosis stimulators (PMA 1 μM, M-CSF 100 ng/mL or PDGF 200 ng/mL)+/− macropinocytosis inhibitors (imipramine 10 μM or EIPA 25 μM; 1 hour pre-incubation) in the presence of nLDL, ox-LDL, or ac-LDL ([…]) for 24 hours. Cells were fixed in 2% PFA and stained with Nile Red (50 ng/mL) for 7 min. Fluorescence intensity was measured using the FL3 channel for Nile Red (Ex: 488 nm, Em: 670 nm).

RAW 264.7 macrophages [2] = assay: Clathrin-mediated endocytosis of FITC-transferrin; assay type: cell-based; conditions: EIPA 25 μM, 1 hr; FITC-transferrin 1 μg/ml
Protocol: (§1) Clathrin- and caveolin-mediated endocytosis: Receptor-mediated uptake of FITC-transferrin (1 μg/mL; clathrin-mediated endocytosis) and Alexa Fluor 488-albumin ([…]; caveolin-mediated endocytosis) was investigated in RAW 264.7 macrophages following their incubation with ±EIPA (25 μM; 1 hour pre-incubation). Fluorescence intensity was measured using the FL1 channel for FITC and Alexa Fluor 488 (Ex: 488 nm, Em: 530 nm).

RAW 264.7 macrophages [3] = assay: Caveolin-mediated endocytosis of Alexa Fluor 488-albumin; assay type: cell-based; conditions: EIPA 25 μM, 1 hr; AF488-albumin 1 μg/ml
Protocol: as §1

RAW 264.7 macrophages [4] = assay: Cell viability assay, LIVE/DEAD Fixable Far Red dye; assay type: cell-based; conditions: EIPA 25 μM, 1 hr, then PMA 4 hours
Protocol: Cell viability assay: RAW 264.7 macrophages were plated in 24 well plates at a density of 1×10^6 cells/mL. Twenty four hours later, macrophages were pre-incubated with vehicle or EIPA (25 μM, 1 hr) and treated with PMA (1 μM, 4 hrs). Cells were fixed in 2% PFA, resuspended in FACS buffer (2% BSA and 0.01% sodium azide in PBS), and stained with the LIVE/DEAD™ Fixable Far Red dye to identify live cells. Fluorescence intensity was measured using the FL4 channel (Ex: 650 nm, Em: 660 nm).

Wild type BMDM = assay: Cytokine secretion, LEGENDplex bead-based immunoassay; assay type: cell-based, mouse
Protocol: Wild type BMDM were incubated with vehicle or treated with EIPA (25 μM, 24 hours). Cytokine secretion into the media was quantified using the LEGENDplex™ (mouse inflammation panel) bead-based immunoassay according to the manufacturer's instructions (BioLegend, San Diego, Calif., USA). Data were acquired using four-color BD FACSCalibur (BD Biosciences, San Jose, Calif., USA) and analyzed using the LEGENDplex Data Analysis software (BioLegend).

[5] = system: THP-1 monocytes on human aortic endothelial cells; assay: Monocyte adhesion assay; assay type: cell-based; conditions: EIPA 25 μM; HAEC TNFα 10 ng/ml, 4 hr
Protocol: Adhesion studies were performed using the human monocyte cell line THP-1. Vehicle- or EIPA (25 μM, 24 hours)-treated THP-1 monocytes were labeled using Vybrant™ CFDA SE Cell Tracer Kit (ThermoFisher). Human aortic endothelial cell monolayers grown on coverslips in a 24-well plate were treated with vehicle (PBS) or TNFα (10 ng/ml) for 4 hours. Endothelial cells were labeled with Cell Tracker™ Deep Red Dye (ThermoFisher). Fifty microliter of THP-1 monocyte suspension containing 1×10^6 cells was added to each well of endothelial cells, and the plates were gently agitated and placed in a cell culture incubator for 1 hour. At the end of the incubation period, the monolayer was gently washed three times with cold PBS. After the final wash, coverslips were stained with Hoechst 33342 (ThermoFisher) and mounted onto slides using mounting medium. Fluorescent signals were detected using a Zeiss 780 upright confocal microscopy. Quantification was completed with Image-Pro Plus software (Media Cybemetics, Bethesda, Md., USA).

[6] = system: human aortic endothelial cells; assay: qRT-PCR of SR-B1 mRNA expression; assay type: cell-based; conditions: EIPA 25 μM, 24 hr
ApoE-/- mice = assay: Atherosclerosis model: ApoE-/- mice, partial LCA ligation, Western diet; assay type: in vivo, mouse; conditions: male ApoE-/- mice, Western diet 4 weeks, EIPA via subcutaneously implanted minipump
[7] = system: F4/80+ macrophages of atherosclerotic ApoE-/- aorta; assay: In vivo DiI-nLDL uptake by macrophages of atherosclerotic arteries; set-up: species or system mouse; conditions: EIPA 25 mg/kg/day, i.p. for 3 days; DiI-nLDL 100 μg retro-orbitally; 12 weeks Western diet
Protocol: Isolation of macrophages from atherosclerotic arteries: 8-10-week-old ApoE^−/− mice were fed a Western diet for 12 weeks. Mice were treated with vehicle or EIPA (25 mg/kg/day, i.p.) for 3 days. On the day of sacrifice, mice were retro-orbitally injected with vehicle or 100 μg Dil-nLDL. After 4 hours, mice were anaesthetized and perfused with ice-cold PBS for 5 min and the entire thoracic aorta with LCA was isolated. Following removal of the adventitia, macrophages were isolated using the Neonatal Heart Dissociation Kit (Miltenyi Biotech.) and CD11b microbeads (Miltenyi Biotech.). Cells were stained with anti-F4/80-APC (clone BM8) or IgG control antibodies (Biolegend). Dil fluorescence was measured in F4/80-positive macrophages [Dil (Ex: 549 nm, Em: 565 nm) and APC (Ex: 640 nm, Em: 670 nm)].

## CCN(c1nc(N)c(C(=O)N=C(N)N)nc1Cl)C(C)C [EIPA, 5-(N-ethyl-N-isopropyl)amiloride]
[1]
  SR-mediated ox-LDL uptake: without inhibiting; also recorded: does not inhibit
RAW 264.7 macrophages [2]
  clathrin-mediated transferrin endocytosis: without inhibiting; also recorded: does not inhibit
RAW 264.7 macrophages [3]
  caveolin-dependent albumin internalization: without inhibiting; also recorded: does not inhibit
RAW 264.7 macrophages [4]
  Cytotoxicity (LIVE/DEAD Fixable Cell Stain): no cell death
Wild type BMDM; EIPA 25 μM, 24 hours, n = 3, vehicle 2.40 ± 0.58
  IL-6 secretion: 1.82 ± 0.40 pg/mL
Wild type BMDM; EIPA 25 μM, 24 hours, n = 3, vehicle 7.83 ± 1.89
  TNFα secretion: 4.76 ± 0.77 pg/mL
Wild type BMDM; EIPA 25 μM, 24 hours, n = 3, vehicle 38.04 ± 6.03
  MCP-1 secretion: 22.19 ± 2.30 pg/mL
Wild type BMDM; in the absence of exogenous lipids
  macrophage secretion of TNF-α, MCP-1, and IL-6: does not inhibit
[5]
  monocyte adhesion to TNFα-treated endothelial cells: does not inhibit
[6]
  SR-B1 mRNA levels: does not increase
ApoE-/- mice
  atherosclerosis (ORO positive area, LCA): inhibited atherosclerosis; also recorded: attenuates
[7]
  DiI-LDL uptake by F4/80+ macrophages in atherosclerotic arteries: substantially inhibited
